Results reported in ChEMBL document CHEMBL4304788, “Treatment of Cancer and Alzheimer's Disease by PROTAC Degradation of EGFR” (ACS Med Chem Lett, 2019).

Target: Protein cereblon/Epidermal growth factor receptor (Homo sapiens, UniProt P00533+Q96SW2, L858R/T790M)
Assay: Protac activity at native cereblon/EGFR T790M/L858R mutant (unknown origin) transfected in mouse Baf3 cells assessed as reduction in cell proliferation by MTS assay
Type: cell-based

Sequence of Protein cereblon/Epidermal growth factor receptor (P00533 25-1210 T790M/L858R limits assumed, stated change not applied): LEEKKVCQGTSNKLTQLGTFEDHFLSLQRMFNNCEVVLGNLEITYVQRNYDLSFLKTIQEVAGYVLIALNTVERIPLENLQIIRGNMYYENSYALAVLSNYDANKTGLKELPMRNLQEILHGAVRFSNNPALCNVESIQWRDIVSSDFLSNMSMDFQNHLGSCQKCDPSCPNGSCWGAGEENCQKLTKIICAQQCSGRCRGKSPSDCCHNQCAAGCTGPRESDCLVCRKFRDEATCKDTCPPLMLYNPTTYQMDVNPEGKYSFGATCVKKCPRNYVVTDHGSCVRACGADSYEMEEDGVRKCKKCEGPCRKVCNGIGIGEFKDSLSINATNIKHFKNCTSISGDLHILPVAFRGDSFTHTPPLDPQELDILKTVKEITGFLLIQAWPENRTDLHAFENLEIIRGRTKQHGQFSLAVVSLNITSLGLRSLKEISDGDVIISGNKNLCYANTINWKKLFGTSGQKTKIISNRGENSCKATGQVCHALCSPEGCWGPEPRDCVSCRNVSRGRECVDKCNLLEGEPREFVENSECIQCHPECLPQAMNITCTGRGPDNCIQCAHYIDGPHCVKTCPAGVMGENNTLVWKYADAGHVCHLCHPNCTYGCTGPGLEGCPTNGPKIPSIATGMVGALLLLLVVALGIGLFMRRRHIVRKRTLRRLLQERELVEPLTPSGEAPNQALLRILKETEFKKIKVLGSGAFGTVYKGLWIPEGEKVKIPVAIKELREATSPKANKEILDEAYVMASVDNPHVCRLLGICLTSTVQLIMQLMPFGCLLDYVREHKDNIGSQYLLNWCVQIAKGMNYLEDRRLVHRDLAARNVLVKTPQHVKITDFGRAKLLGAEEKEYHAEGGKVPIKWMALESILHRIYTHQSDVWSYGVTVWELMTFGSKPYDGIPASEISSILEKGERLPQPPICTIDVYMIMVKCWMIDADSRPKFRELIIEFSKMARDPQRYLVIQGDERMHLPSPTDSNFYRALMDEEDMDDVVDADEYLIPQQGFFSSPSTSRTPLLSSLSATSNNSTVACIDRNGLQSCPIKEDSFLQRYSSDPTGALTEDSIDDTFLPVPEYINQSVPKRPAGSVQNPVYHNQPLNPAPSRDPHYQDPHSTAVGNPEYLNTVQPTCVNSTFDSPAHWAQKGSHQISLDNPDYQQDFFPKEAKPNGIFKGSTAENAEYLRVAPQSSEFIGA
Sequence of Protein cereblon/Epidermal growth factor receptor (Q96SW2 whole entry, stated change not applied): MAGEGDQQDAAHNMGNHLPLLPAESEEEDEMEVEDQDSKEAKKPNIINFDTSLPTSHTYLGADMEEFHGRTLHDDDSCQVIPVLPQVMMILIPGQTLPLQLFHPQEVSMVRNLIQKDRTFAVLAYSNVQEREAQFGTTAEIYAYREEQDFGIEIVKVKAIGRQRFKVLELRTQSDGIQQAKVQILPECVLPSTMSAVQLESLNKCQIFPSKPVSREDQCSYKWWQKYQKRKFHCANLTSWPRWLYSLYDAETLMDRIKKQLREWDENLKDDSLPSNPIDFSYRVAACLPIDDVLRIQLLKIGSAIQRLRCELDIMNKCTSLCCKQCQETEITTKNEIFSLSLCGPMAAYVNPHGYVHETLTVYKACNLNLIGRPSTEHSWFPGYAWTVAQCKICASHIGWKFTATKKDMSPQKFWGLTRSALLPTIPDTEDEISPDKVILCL

Row | Structure (SMILES) | EC50 [nM]
1 | O=C1CCC(N2C(=O)c3cccc(NCCOCCOCCOCCOCCN4CCN(c5ccc(-c6ccc7c(c6)C(=O)N(C(C(=O)Nc6nccs6)c6ccccc6)C7)cc5)CC4)c3C2=O)C(=O)N1 (centres undefined) | < 500
2 | O=C1CCC(N2C(=O)c3cccc(NCCOCCOCCOCCN4CCN(c5ccc(-c6ccc7c(c6)C(=O)N(C(C(=O)Nc6nccs6)c6ccccc6)C7)cn5)CC4)c3C2=O)C(=O)N1 (centres undefined) | < 500
3 | O=C1CCC(N2C(=O)c3cccc(NCCOCCOCCOCCN4CCN(c5ccc(-c6ccc7c(c6)C(=O)N(C(C(=O)Nc6nccs6)c6ccccc6)C7)cc5)CC4)c3C2=O)C(=O)N1 (centres undefined) | < 500
4 | O=C1CCC(N2C(=O)c3cccc(NCCOCCOCCOCCC(=O)N4CCN(c5ccc(-c6ccc7c(c6)C(=O)N(C(C(=O)Nc6nccs6)c6ccccc6)C7)cc5)CC4)c3C2=O)C(=O)N1 (centres undefined) | < 500
